Test results reported in patent US12077503B2, “Substituted cyclic amides and their use as herbicides” (FMC CORPORATION, priority 2015, dated 2024).

What was measured:
Experiment in all cases: Test C preemergence
Type in all cases: in vivo
[1] = system: crabgrass, large (large crabgrass, Digitaria sanguinalis); details: for Plant response rating, Crabgrass, Large: scale 0 to 100, 0 no effect, 100 complete control
Summary of the method: (§1)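 Preemergence application to seeds in loam/sand soil, or foliar (postemergence) application to plants 2–18 cm tall in peat moss/vermiculite medium; surfactant-containing non-phytotoxic solvent vehicle; greenhouse. Visual injury vs controls at 13–15 d; 0 = no effect, 100 = complete control.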

[2] = system: oilseed rape (Brassica napus); details: for Plant response rating, Oilseed Rape: scale 0 to 100, 0 no effect, 100 complete control
Summary of the method: as §1

[3] = system: corn (Zea mays); details: for Plant response rating, Corn: scale 0 to 100, 0 no effect, 100 complete control
Summary of the method: as §1

[4] = system: soybean (Glycine max); details: for Plant response rating, Soybean: scale 0 to 100, 0 no effect, 100 complete control
Summary of the method: as §1

[5] = system: barnyardgrass (Echinochloa crus-galli); details: for Plant response rating, Barnyardgrass: scale 0 to 100, 0 no effect, 100 complete control
Summary of the method: as §1

[6] = system: waterhemp (common waterhemp, Amaranthus rudis); details: for Plant response rating, Waterhemp: scale 0 to 100, 0 no effect, 100 complete control
Summary of the method: as §1

[7] = system: velvetleaf (Abutilon theophrasti); details: for Plant response rating, Velvetleaf: scale 0 to 100, 0 no effect, 100 complete control
Summary of the method: as §1

[8] = system: foxtail, giant (giant foxtail, Setaria faberii); details: for Plant response rating, Foxtail, Giant: scale 0 to 100, 0 no effect, 100 complete control
Summary of the method: as §1

[9] = system: pigweed (Amaranthus retroflexus); details: for Plant response rating, Pigweed: scale 0 to 100, 0 no effect, 100 complete control
Summary of the method: as §1

[10] = system: ryegrass, Italian (Italian ryegrass, Lolium multiflorum); details: for Plant response rating, Ryegrass, Italian: scale 0 to 100, 0 no effect, 100 complete control
Summary of the method: as §1

[11] = system: ragweed (common ragweed, Ambrosia elatior); details: for Plant response rating, Ragweed: scale 0 to 100, 0 no effect, 100 complete control
Summary of the method: as §1

[12] = system: blackgrass (Alopecurus myosuroides); details: for Plant response rating, Blackgrass: scale 0 to 100, 0 no effect, 100 complete control
Summary of the method: as §1

[13] = system: morningglory (Ipomoea coccinea); details: for Plant response rating, Morningglory: scale 0 to 100, 0 no effect, 100 complete control
Summary of the method: as §1

[14] = system: nutsedge, yellow (yellow nutsedge, Cyperus esculentus); details: for Plant response rating, Nutsedge, Yellow: scale 0 to 100, 0 no effect, 100 complete control
Summary of the method: as §1

[15] = system: wheat (winter wheat, Triticum aestivum); details: for Plant response rating, Wheat: scale 0 to 100, 0 no effect, 100 complete control
Summary of the method: as §1

[16] = system: lambsquarters (Chenopodium album); details: for Plant response rating, Lambsquarters: scale 0 to 100, 0 no effect, 100 complete control
Summary of the method: as §1

[17] = system: Galium (catchweed bedstraw, Galium aparine); details: for Plant response rating, Galium: scale 0 to 100, 0 no effect, 100 complete control
Summary of the method: as §1

[18] = 31 g ai/ha, 0 is no effect, 100 is complete control

CN1CC(c2cccc(C(F)(F)F)c2)C(C(=O)Nc2ccccc2S(C)(=O)=O)C1=O (centres unmarked) [Compound 637]
Plant response rating (scale of 0 to 100), Crabgrass, Large [1, 18]: 95
Plant response rating, Crabgrass, Large ([1]; 62 g ai/ha): 100
Plant response rating, Crabgrass, Large ([1]; 125 g ai/ha): 100
Plant response rating, Crabgrass, Large ([1]; 250 g ai/ha): 100
Plant response rating (scale of 0 to 100), Oilseed Rape [2, 18]: 10
Plant response rating, Oilseed Rape ([2]; 62 g ai/ha): 80
Plant response rating, Oilseed Rape ([2]; 125 g ai/ha): 85
Plant response rating, Oilseed Rape ([2]; 250 g ai/ha): 85
Plant response rating (scale of 0 to 100), Corn [3, 18]: 35
Plant response rating, Corn ([3]; 62 g ai/ha): 55
Plant response rating, Corn ([3]; 125 g ai/ha): 75
Plant response rating, Corn ([3]; 250 g ai/ha): 85
Plant response rating (scale of 0 to 100), Soybean [4, 18]: 0
Plant response rating, Soybean ([4]; 62 g ai/ha): 0
Plant response rating, Soybean ([4]; 125 g ai/ha): 0
Plant response rating, Soybean ([4]; 250 g ai/ha): 5
Plant response rating (scale of 0 to 100), Barnyardgrass [5, 18]: 90
Plant response rating, Barnyardgrass ([5]; 62 g ai/ha): 90
Plant response rating, Barnyardgrass ([5]; 125 g ai/ha): 95
Plant response rating, Barnyardgrass ([5]; 250 g ai/ha): 95
Plant response rating (scale of 0 to 100), Waterhemp [6, 18]: 75
Plant response rating, Waterhemp ([6]; 62 g ai/ha): 80
Plant response rating, Waterhemp ([6]; 125 g ai/ha): 85
Plant response rating, Waterhemp ([6]; 250 g ai/ha): 90
Plant response rating (scale of 0 to 100), Velvetleaf [7, 18]: 0
Plant response rating, Velvetleaf ([7]; 62 g ai/ha): 10
Plant response rating, Velvetleaf ([7]; 125 g ai/ha): 45
Plant response rating, Velvetleaf ([7]; 250 g ai/ha): 65
Plant response rating (scale of 0 to 100), Foxtail, Giant [8, 18]: 90
Plant response rating, Foxtail, Giant ([8]; 62 g ai/ha): 90
Plant response rating, Foxtail, Giant ([8]; 125 g ai/ha): 95
Plant response rating, Foxtail, Giant ([8]; 250 g ai/ha): 95
Plant response rating (scale of 0 to 100), Pigweed [9, 18]: 70
Plant response rating, Pigweed ([9]; 62 g ai/ha): 80
Plant response rating, Pigweed ([9]; 125 g ai/ha): 85
Plant response rating, Pigweed ([9]; 250 g ai/ha): 85
Plant response rating (scale of 0 to 100), Ryegrass, Italian [10, 18]: 55
Plant response rating, Ryegrass, Italian ([10]; 62 g ai/ha): 30
Plant response rating, Ryegrass, Italian ([10]; 125 g ai/ha): 30
Plant response rating, Ryegrass, Italian ([10]; 250 g ai/ha): 35
Plant response rating (scale of 0 to 100), Ragweed [11, 18]: 55
Plant response rating, Ragweed ([11]; 62 g ai/ha): 60
Plant response rating, Ragweed ([11]; 125 g ai/ha): 75
Plant response rating, Ragweed ([11]; 250 g ai/ha): 75
Plant response rating (scale of 0 to 100), Blackgrass [12, 18]: 70
Plant response rating, Blackgrass ([12]; 62 g ai/ha): 90
Plant response rating, Blackgrass ([12]; 125 g ai/ha): 90
Plant response rating, Blackgrass ([12]; 250 g ai/ha): 90
Plant response rating (scale of 0 to 100), Morningglory [13, 18]: 10
Plant response rating, Morningglory ([13]; 62 g ai/ha): 35
Plant response rating, Morningglory ([13]; 125 g ai/ha): 40
Plant response rating, Morningglory ([13]; 250 g ai/ha): 45
Plant response rating (scale of 0 to 100), Nutsedge, Yellow [14, 18]: 0
Plant response rating, Nutsedge, Yellow ([14]; 62 g ai/ha): 85
Plant response rating, Nutsedge, Yellow ([14]; 125 g ai/ha): 0
Plant response rating, Nutsedge, Yellow ([14]; 250 g ai/ha): 65
Plant response rating (scale of 0 to 100), Wheat [15, 18]: 60
Plant response rating, Wheat ([15]; 62 g ai/ha): 50
Plant response rating, Wheat ([15]; 125 g ai/ha): 90
Plant response rating, Wheat ([15]; 250 g ai/ha): 90
Plant response rating (scale of 0 to 100), Lambsquarters [16, 18]: 25
Plant response rating, Lambsquarters ([16]; 62 g ai/ha): 55
Plant response rating, Lambsquarters ([16]; 125 g ai/ha): 55
Plant response rating, Lambsquarters ([16]; 250 g ai/ha): 70
Plant response rating (scale of 0 to 100), Galium [17, 18]: 0
Plant response rating, Galium ([17]; 62 g ai/ha): 80
Plant response rating, Galium ([17]; 125 g ai/ha): 80
Plant response rating, Galium ([17]; 250 g ai/ha): 85
